From patent US20260166122A1, “USE OF MICROPEPTIDE MIAC” (NANJING ANJI BIOTECHNOLOGY CO., LTD, priority 2023, published 2026)
Read-outs that look alike come from different tables or passages of the source. Ends that are not written are not given here.

Columns and labels:
[1] = tested on: prostate cancer Du145 cells; assay: transwell migration inhibition, Du145; format: cell-based, human; settings: 48 h
Method: (§1) Human prostate cancer, cervical cancer, osteosarcoma, ovarian cancer, melanoma, and hepatocellular carcinoma cells were inoculated into transwell chambers, with 100 μL per well; for an administration group, 100 μL of a micropeptide MIAC was added to each of the chambers at a different dose; and no medicament was added to a blank group. Then, 0.6 mL of a complete medium comprising 10% FBS was added to transwell lower chambers to stimulate cell migration, followed by incubation at 37° C. with 5% CO2 for 48 h. The culture medium in the wells was discarded, and the cells were fixed with methanol at room temperature for 30 min, stained with 0.1% crystal violet at room temperature for 10 min, and rinsed thoroughly with clear water; the unmigrated cells in the upper layer were wiped off with a cotton swab; and the migrated cells were observed under a microscope, and four visual fields were selected for photography and counting. The migration inhibition rate (MI) was calculated using the following formula: […]
(§2) where Ntest represents the number of migrated cells in the administration group, and Ncontrol represents the number of migrated cells in the blank control group.

[2] = tested on: malignant melanoma A375 cells; assay: transwell migration inhibition, A375; format: cell-based, human; settings: 48 h
Method: as §1, §2

[3] = tested on: human breast cancer cells MDA-MB-231; format: cell-based; settings: 72 h
[4] = tested on: cervical cancer Hela cells; assay: transwell migration inhibition, Hela; format: cell-based, human; settings: 48 h
Method: as §1, §2

“MERAGVPGFSPRRSSVEAKMQSTSCSVRKSSTVTAWPAVVLLLSWGQRRGG [MIAC, micropeptide inhibiting actin cytoskeleton]” was tested, and the “Inhibition rate (%)” value ([1]; Du145, 3.125 μmol/L) was 39.23%, the “Number of migrated cells” value ([1]; Du145, 3.125 μmol/L) was 349.3 ± 98.5 and the “Inhibition rate (%)” value ([1]; Du145, 6.25 μmol/L) was 69.77%. For the same sequence, the “Number of migrated cells” value ([1]; Du145, 6.25 μmol/L) was 173.8 ± 48.8, the “Inhibition rate (%)” value ([1]; Du145, 12.5 μmol/L) was 82.51% and the “Number of migrated cells” value ([1]; Du145, 12.5 μmol/L) was 100.5 ± 11.8. The “Inhibition rate (%)” value ([1]; Du145, 25 μmol/L) was 91.87%, the “Number of migrated cells” value ([1]; Du145, 25 μmol/L) was 46.8 ± 8.5 and the “Inhibition rate (%)” value ([1]; Du145, 50 μmol/L) was 94.56%. The “Number of migrated cells” value ([1]; Du145, 50 μmol/L) was 31.3 ± 8.4, the “Inhibition rate (%)” value ([2]; A375, 12.5 μmol/L) was 46.18% and the “Number of migrated cells” value ([2]; A375, 12.5 μmol/L) was 139.3 ± 28.5. For the same sequence, the “Inhibition rate (%)” value ([2]; A375, 25 μmol/L) was 36.52%, the “Number of migrated cells” value ([2]; A375, 25 μmol/L) was 164.3 ± 40.1 and the “Inhibition rate (%)” value ([2]; A375, 50 μmol/L) was 48.70%. The “Number of migrated cells” value ([2]; A375, 50 μmol/L) was 132.8 ± 35.1, the OD ([3]; MDA-MB-231, 50 μM) was 0.777 ± 0.050 and the OD ([3]; MDA-MB-231, 100 μM) was 0.378 ± 0.058. The OD ([3]; MDA-MB-231, 200 μM) was 0.206 ± 0.016, the “Inhibition rate (%)” value ([4]; 6.25 μmol/L) was 12.76% and the “Number of migrated cells” value ([4]; 6.25 μmol/L) was 475.0 ± 53.3. For the same sequence, the “Inhibition rate (%)” value ([4]; 12.5 μmol/L) was 39.23%, the “Number of migrated cells” value ([4]; 12.5 μmol/L) was 296.8 ± 45.0 and the “Inhibition rate (%)” value ([4]; 25 μmol/L) was 33.83%. The “Number of migrated cells” value ([4]; 25 μmol/L) was 360.3 ± 119.4, the “Inhibition rate (%)” value ([4]; 50 μmol/L) was 61.30% and the “Number of migrated cells” value ([4]; 50 μmol/L) was 210.5 ± 66.6.
